Experimental data taken from US20050143291A1, “Methods and compositions for modulating apoptosis” (priority 2003, published 2005).

Experiments:
caspase-7 = assay: In vitro caspase-7 activation assay, cell-free extracts with cytochrome c and dATP; type: biochemical, Chinese hamster
Protocol: FIG. 5, Panel C depicts cytoplasmic extracts prepared from CHO and C.1 cells and incubated with (+) or without (−) 10 μM cytochrome c and the various amounts of dATP (mM) as indicated.
Among the executor caspases, caspase-7 has been reported to be associated with the ER. Upon induction of apoptosis, procaspase-7 (35 kDa) is first converted into a 32-kDa intermediate, which is further processed into active 20- and 11-kDa subunits. […] Upon longer exposure of the autoradiogram, the active 20- and 11-kDa forms were evident in the etoposide-treated cells. When GRP78 was overexpressed, a low level of caspase-7 activation was detected in both the non-treated and etoposide-treated cells. […] In addition, upon addition of cytochrome c, caspase-7 activation was higher in CHO cells than C.1 cells, as evidenced by the increase in the active 20- and 11-kDa forms in the CHO samples compared with the C.1 samples.
The cells were suspended in 5 volumes of a hypotonic buffer (5 mM Tris-HCl, pH 7.4, 5 mM KCl, 1.5 mM MgCl2, 0.1 mM EGTA, pH 8.0, and 1 mM dithiothreitol) in the presence of 2 μg/ml leupeptin, pepstatin, and aprotinin protease inhibitors. After incubation on ice for 20 min, sucrose was added to a final concentration of 250 mM, and the cells were disrupted by douncing eight times in a 1-ml Wheaton Dounce homogenizer. The homogenate was centrifuged twice at […] for 10 min. […]

Control cells = assay: % Survival (Colony Assay), control cells; type: cell-based
Protocol: (§1) Experiments were also performed to determine the anti-apoptotic effect conferred by overexpression of GRP78. This task was completed.
(§2) Clonogenic Survival Assays—Four thousand cells were seeded into 10-cm-diameter dishes. […] After drug treatment, the cells were grown in fresh medium for 10 to 14 days. The colonies were washed with ice-cold PBS, fixed with methanol, and stained with 10% Giemsa staining solution. The surviving fraction was determined by dividing the number of the surviving colonies in the drug-treated cells by the number of colonies in the non-treated control groups.

[1] = system: GRP78 Overexpression cells; assay: % Survival (Colony Assay), GRP78 overexpression; type: cell-based; conditions: for % Survival (Colony Assay): GRP78 Overexpression; for effect of GRP78 overexpression on sensitivity to the drug: GRP78 overexpression versus control
Protocol: as §1, §2

GRP78 [2] = assay: Suppression of GRP78 level by siRNA in MDA-MB-435 cells (Western blot); type: cell-based, human
Source text: (§3) The concentrations of siRNA Grp78 II used were indicated on top.
(§4) This translates to more death in the cells treated with Grp78(II) siRNA than control siRNA targeted against the unrelated green fluorescence protein (FIG. 16).

MDA-MB-435 cells = assay: Etoposide-mediated cell death after siRNA in breast cancer cells; type: cell-based, human
Source text: as §4

GRP78 [3] = assay: Specificity of Grp78 siRNA in 293T cells (Western blot of GRP78, GRP94, HSP70); type: cell-based, human; conditions: β-actin loading control
Source text: as §3
When blasted against the human genomic sequence, this sequence is unique and in principle, should not affect any other human gene. […] The level of β-actin was used as loading control.

CHO cells = assay: Cell cycle analysis (FACS), CHO cells; type: cell-based, Chinese hamster; conditions: CHO cells treated with UPR inducer, versus exponentially growing cells
Protocol: (§5) Cell Cycle Analysis—Following seeding, exponentially growing cells were trypsinized at different days and fixed in 70% ethanol. The fixed cells were treated with PBS containing 0.1% (v/v) Triton X-100, 0.2 mg/ml DNase-free RNase, and 20 μg/ml propidium iodide (PI) for 30 min at room temperature. The cell cycle distributions were analyzed by fluorescence-activated cell sorting (FACS) analysis (FACstar; BD Biosciences). The cell cycle distribution measurements were repeated three to four times.
(§6) In both the vector-transfected and GRP78 overexpressing cells, the percentage of G1, S, and G2 cells is similar.

T24/83 cells = assay: Cell cycle analysis (FACS), T24/83 cells; type: cell-based, human; conditions: T24/83 cells treated with UPR inducer
Protocol: as §5, §6

[4] = target: T1, glucose regulated protein 78 (GRP78), wild-type, as present in CHO cells (endogenous) and C.1 cells … (hamster, UniProt G3I8R9 19-654); assay: co-immunoprecipitation from CHO and C.1 whole cell extracts, Western blot
T1 construct: Protein in cell lysates used for co-immunoprecipitation, not purified; also called BiP; wild-type GRP78
T1 sequence (G3I8R9 19-654 limits assumed): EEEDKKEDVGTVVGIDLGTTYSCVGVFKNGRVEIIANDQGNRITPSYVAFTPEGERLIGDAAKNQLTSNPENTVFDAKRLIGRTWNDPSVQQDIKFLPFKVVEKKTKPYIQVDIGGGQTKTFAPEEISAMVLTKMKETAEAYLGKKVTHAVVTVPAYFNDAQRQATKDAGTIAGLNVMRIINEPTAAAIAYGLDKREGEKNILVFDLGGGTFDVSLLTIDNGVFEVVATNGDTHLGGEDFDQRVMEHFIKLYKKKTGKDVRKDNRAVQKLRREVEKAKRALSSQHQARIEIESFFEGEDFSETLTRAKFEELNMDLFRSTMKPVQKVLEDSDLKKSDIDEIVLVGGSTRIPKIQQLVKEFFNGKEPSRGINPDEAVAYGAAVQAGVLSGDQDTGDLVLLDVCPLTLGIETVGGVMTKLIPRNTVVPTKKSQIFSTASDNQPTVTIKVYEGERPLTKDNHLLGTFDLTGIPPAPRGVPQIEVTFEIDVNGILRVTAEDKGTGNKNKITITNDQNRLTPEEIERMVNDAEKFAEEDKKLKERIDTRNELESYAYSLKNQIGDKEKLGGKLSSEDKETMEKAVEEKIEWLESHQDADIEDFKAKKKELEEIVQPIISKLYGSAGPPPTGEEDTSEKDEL
Protocol: Co-immunoprecipitation Assays—2×10⁶ cells were lysed in 400 μl of extraction buffer (50 mM Tris-HCl, pH 7.5, 150 mM NaCl, 0.5% Nonidet P-40, and 0.5% deoxycholate, with protease inhibitor tablet (Roche Molecular Biochemicals)) and frozen and thawed three times. 500 μg of total protein extract from each sample was pretreated with 50 μl of protein A-Sepharose beads (Sigma) for 1 h at 4° C. prior to incubation with 5 μg of either anti-caspase-7 mouse monoclonal antibody or anticaspase-3 antibodies for 2 h. Following the incubation period, 50 μl of protein A-Sepharose beads was added, and the mixtures were rotated at 4° C. overnight. The beads were then washed five times with the extraction buffer. The immunoprecipitate was released from the washed beads by the addition of 30 μl of 1×SDS-PAGE sample loading buffer (50 mM Tris-HCl, pH 6.8, 100 mM dithiothreitol, 2% SDS, 0.1% bromphenol blue, 10% glycerol), followed by heating at 100° C. for 10 min. The supernatant obtained after centrifugation was resolved by SDS-PAGE and subjected to Western blot analysis to detect the co-immunoprecipitated proteins.

Nc1ncnc2c1ncn2[C@H]1C[C@H](O)[C@@H](COP(=O)(O)OP(=O)(O)OP(=O)(O)O)O1 [dATP]
caspase-7 forms in CHO versus C.1 extracts (caspase-7; 1 mM dATP with cytochrome c): equivalent amounts of the 32- and 20-kDa forms | effect on GRP78-mediated suppression of caspase-7 activation (caspase-7; C.1 extracts in the presence of both cytochrome c and dATP): suppressive effect of the C.1 samples was reversed

CC[C@@]1(O)C(=O)OCc2c1cc1n(c2=O)Cc2cc3ccccc3nc2-1 [Camptothecin]
% Survival (Colony Assay) (Control cells; camptothecin 5 ng/ml): 68% | % Survival (Colony Assay) (Control cells; camptothecin 20 ng/ml): 0.7% | % Survival (Colony Assay) (Control cells; camptothecin 60 ng/ml): 0% | % Survival (Colony Assay) ([1]; camptothecin 5 ng/ml): 82% | % Survival (Colony Assay) ([1]; camptothecin 20 ng/ml): 22% | % Survival (Colony Assay) ([1]; camptothecin 60 ng/ml): 2% | effect of GRP78 overexpression on sensitivity to the drug [1]: confers resistance

Grp78(II) siRNA: siRNA duplex 5′ AAGGTTACCCATGCAGTTGTT 3′ (SEQ ID NO:4) and complement (SEQ ID NO:17) targeting GRP78 (antisense AACAACTGCATGGGTAACCTT; listed as DNA, chemistry not given here; listed as Homo sapiens)
siRNA concentration that significantly suppresses GRP78 level (GRP78 [2]): ≥ 80 nM | cell death versus control siRNA against green fluorescence protein (MDA-MB-435 cells): more death | effect on GRP78, GRP94 and HSP70 levels (GRP78 [3]): only GRP78 level is suppressed

COc1cccc2c1C(=O)c1c(O)c3c(c(O)c1C2=O)C[C@@](O)(C(=O)CO)C[C@@H]3O[C@H]1C[C@H](N)[C@H](O)[C@H](C)O1 [Doxorubicin]
% Survival (Colony Assay) (Control cells; doxorubicin 0.2 μg/ml): 80% | % Survival (Colony Assay) (Control cells; doxorubicin 0.4 μg/ml): 42% | % Survival (Colony Assay) (Control cells; doxorubicin 0.6 μg/ml): 2% | % Survival (Colony Assay) (Control cells; doxorubicin 0.8 μg/ml): 0% | % Survival (Colony Assay) (Control cells; doxorubicin 1.0 μg/ml): 0% | % Survival (Colony Assay) ([1]; doxorubicin 0.2 μg/ml): 95% | % Survival (Colony Assay) ([1]; doxorubicin 0.4 μg/ml): 84% | % Survival (Colony Assay) ([1]; doxorubicin 0.6 μg/ml): 68% | % Survival (Colony Assay) ([1]; doxorubicin 0.8 μg/ml): 48% | % Survival (Colony Assay) ([1]; doxorubicin 1.0 μg/ml): 32% | effect of GRP78 overexpression on sensitivity to the drug [1]: confers resistance

tunicamycin
cell cycle distribution (CHO cells): more cells in G1 and a dramatic reduction in S phase cells | cell cycle distribution (T24/83 cells): a higher percentage of G1 cells and a lower percentage in S phase

N.N.[Cl][Pt][Cl] [Cisplatin]
% Survival (Colony Assay) (Control cells; cisplatin 3.3 μM): 43% | % Survival (Colony Assay) (Control cells; cisplatin 6.6 μM): 3.7% | % Survival (Colony Assay) (Control cells; cisplatin 9.9 μM): 0% | % Survival (Colony Assay) (Control cells; cisplatin 13.0 μM): 0% | % Survival (Colony Assay) ([1]; cisplatin 3.3 μM): 60% | % Survival (Colony Assay) ([1]; cisplatin 6.6 μM): 50% | % Survival (Colony Assay) ([1]; cisplatin 9.9 μM): 27% | % Survival (Colony Assay) ([1]; cisplatin 13.0 μM): 16% | effect of GRP78 overexpression on sensitivity to the drug [1]: confers resistance

C/C=C(/C)C(=O)O[C@H]1C(C)=C2[C@H]([C@@H]1OC(=O)CCCCCCC)[C@@](C)(OC(C)=O)C[C@H](OC(=O)CCC)[C@@]1(O)[C@H]2OC(=O)[C@@]1(C)O [thapsigargin]
cell cycle distribution (CHO cells): more cells in G1 and a dramatic reduction in S phase cells | cell cycle distribution (T24/83 cells): a higher percentage of G1 cells and a lower percentage in S phase

B1: procaspase-3 (endogenous, CHO and C.1 cells) (enzyme)
chain: MENTENSVDSKSIKNLEPKIIHGSESMDSGISLDNSYKMDYPEMGLCIIVNNKNFHKSTGMTSRSGTDVDAANLRETFRNLKYGVRNKNDLTREGIVELMRDVSKEDHSKRSSFVCVLLSHGEEGIIFGTNGPVDLKKITNFFRGDRCRSLTGKPKLFIIQACRGTELDCGIETDSGVGDDMACHKIPVEADFLYAYSTAPGYYSWRNSKDGSWFIQSLCAMLKQYADKLEFMHILTRVNRKVATEFESFSFDATFHAKKQIPCIVSMLTKELYFYH
notes: Zymogen form, in whole cell extracts
binding result [4]: no binding
